{"source": "patent US20250009831A1", "about": "“COMBINATION OF SCUTELLARIA EXTRACTS WITH CITRUS BERGAMIA OR CYNARA CARDUNCULUS EXTRACTS AND FORMULATIONS CONTAINING THEM” (AKHYNEX S.R.L., priority 2021, published 2025)", "origin": "cited, not measured here", "system": "rats treated with orotic acid to induce fatty liver disease"}
{"compound": "O=C(O)[C@H]1O[C@@H](Oc2cc3oc(-c4ccccc4)cc(=O)c3c(O)c2O)[C@H](O)[C@@H](O)[C@@H]1O", "note": "[baicalin]", "values": [{"measurement": "FFA-induced lipotoxicity", "setting": "rat, in vivo", "value": "had a preventive effect on FFA-induced lipotoxicity"}, {"measurement": "accumulation of fats in the liver", "setting": "rats treated with orotic acid", "value": "inhibited the accumulation of fats in the liver"}, {"measurement": "hypertrophy of the hepatocytes", "setting": "rats treated with orotic acid", "value": "attenuated hypertrophy of the hepatocytes"}]}
